# Data published in EP4667483A1, “HUMAN TRANSFERRIN RECEPTOR-BINDING PEPTIDE” (JCR Pharmaceuticals Co., Ltd., priority 2023, dated 2024).
# Bridge positions count the residues as written; N and C are the ends. Square brackets hold non-standard residues; d marks the D form. Peptide text beside a SMILES is read from it. * marks the point of attachment. Trp(7-aza) = N[C@@H](Cc1c[nH]c2ncccc12)C(=O)O; NMePhe(3-Cl) = CN[C@@H](Cc1cccc(Cl)c1)C(=O)O; 3Pal(6-NH2) = Nc1ccc(C[C@H](N)C(=O)O)cn1; NMeW = CN[C@@H](Cc1c[nH]c2ccccc12)C(=O)O; PEG8 = NCCOCCOCCOCCOCCOCCOCCOCCOCCC(=O)O; NMeY = CN[C@@H](Cc1ccc(O)cc1)C(=O)O; Nva(3-Et) = CCC(CC)[C@H](N)C(=O)O; NMeF = CN[C@@H](Cc1ccccc1)C(=O)O; PEG4 = NCCOCCOCCOCCOCCC(=O)O; Carboxymethyl = O=C(O)C*; NH(CH2)3NH2 = NCCCN*
# Columns and labels:
# [1] = target: T1, human transferrin receptor (hTfR) (Homo sapiens, UniProt P02786); test: SPR measurement under pH 6.0 conditions (Biacore T200, NTA chip, immobilized hTfR); format: binding; conditions: read-out: hTfR SPR pH6.0 KD
# T1 sequence (P02786 whole entry): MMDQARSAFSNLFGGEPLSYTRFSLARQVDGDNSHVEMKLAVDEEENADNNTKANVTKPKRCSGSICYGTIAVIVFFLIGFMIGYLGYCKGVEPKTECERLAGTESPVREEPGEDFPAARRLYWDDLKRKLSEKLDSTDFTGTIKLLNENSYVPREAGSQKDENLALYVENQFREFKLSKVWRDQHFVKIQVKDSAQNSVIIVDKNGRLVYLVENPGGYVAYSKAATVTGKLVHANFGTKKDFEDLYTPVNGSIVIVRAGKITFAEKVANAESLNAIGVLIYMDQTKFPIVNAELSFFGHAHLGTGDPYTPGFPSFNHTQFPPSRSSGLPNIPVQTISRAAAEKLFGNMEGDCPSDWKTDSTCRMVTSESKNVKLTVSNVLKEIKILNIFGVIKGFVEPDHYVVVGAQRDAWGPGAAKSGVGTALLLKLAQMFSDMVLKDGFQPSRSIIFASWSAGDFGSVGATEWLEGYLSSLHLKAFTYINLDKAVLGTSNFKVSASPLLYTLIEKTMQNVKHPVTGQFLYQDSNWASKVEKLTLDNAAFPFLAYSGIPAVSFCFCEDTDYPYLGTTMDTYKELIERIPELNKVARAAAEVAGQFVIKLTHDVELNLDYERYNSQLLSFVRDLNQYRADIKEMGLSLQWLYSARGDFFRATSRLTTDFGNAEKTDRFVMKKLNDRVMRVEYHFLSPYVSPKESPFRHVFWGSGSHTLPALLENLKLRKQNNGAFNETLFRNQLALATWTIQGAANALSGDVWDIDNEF
# [2] = target: T1, human transferrin receptor (hTfR); test: SPR measurement under pH 7.4 conditions (Biacore T200, CM3 chip, hTfR captured by His Tag antibody); format: binding; conditions: read-out: hTfR SPR pH7.4 KD
# [3] = SPR, pH 6.0, peptide with the linker named in the table
# [4] = SPR, pH 7.4, peptide with the linker named in the table
Structure (SMILES),"Kd [1, 3] [µM]","Kd [2, 4] [µM]","Kd ([1]; pH 6.0, single-cycle kinetics) [µM]","Kd ([2]; pH 7.4, single-cycle kinetics) [µM]"
CCC(CC)[C@@H]1NC(=O)[C@H](Cc2ccc(O)cc2)NC(=O)[C@H](Cc2ccc(N)nc2)NC(=O)[C@H](CC(N)=O)NC(=O)[C@H](Cc2c[nH]c3ccccc23)N(C)C(=O)[C@H](C(C)C)NC(=O)[C@H](Cc2ccccc2)N(C)C(=O)[C@H](C(C)C)NC(=O)[C@H](C)NC(=O)CSC[C@@H](C(=O)NCCOCCOCCOCCOCCC(N)=O)NC(=O)[C@H](Cc2ccc(O)cc2)N(C)C(=O)[C@H](Cc2ccc(O)cc2)NC(=O)[C@H](CCCNC(=N)N)NC(=O)[C@H](CCCCN)NC(=O)[C@H]([C@@H](C)CC)NC1=O [compound 133] ({CH2CO}-AV[NMeF]V[NMeW]N[3Pal(6-NH2)]Y[Nva(3-Et)]IKRY[NMeY]C[PEG4]-NH2; thioether N-15),0.0202,0.0165,,
CCC(CC)[C@@H]1NC(=O)[C@H](Cc2ccc(O)cc2)NC(=O)[C@H](Cc2ccc(N)nc2)NC(=O)[C@H](CC(N)=O)NC(=O)[C@H](Cc2c[nH]c3ccccc23)N(C)C(=O)[C@H](C(C)C)NC(=O)[C@H](Cc2cccc(Cl)c2)N(C)C(=O)[C@H](C(C)C)NC(=O)[C@H](C)NC(=O)CSC[C@@H](C(=O)NCCOCCOCCOCCOCCC(N)=O)NC(=O)[C@H](Cc2ccc(O)cc2)N(C)C(=O)[C@H](Cc2ccc(O)cc2)NC(=O)[C@H](CCCNC(=N)N)NC(=O)[C@H](CCCCN)NC(=O)[C@H]([C@@H](C)CC)NC1=O [compound 134] ({CH2CO}-AV[NMePhe(3-Cl)]V[NMeW]N[3Pal(6-NH2)]Y[Nva(3-Et)]IKRY[NMeY]C[PEG4]-NH2; thioether N-15),0.00395,0.00458,,
CC[C@H](C)[C@@H]1NC(=O)[C@H](Cc2ccc(OCC(=O)O)cc2)NC(=O)[C@H](Cc2ccc(O)cc2)NC(=O)[C@H](CC(N)=O)NC(=O)[C@H](Cc2c[nH]c3ncccc23)NC(=O)[C@H](C(C)C)NC(=O)[C@H](Cc2cccc(Cl)c2)N(C)C(=O)[C@H](C(C)C)NC(=O)[C@H](C)NC(=O)CSC[C@@H](C(=O)NCCOCCOCCOCCOCCC(N)=O)NC(=O)[C@H](Cc2ccc(O)cc2)N(C)C(=O)[C@H](CCC(=O)NCCOCCOCCOCCOCCOCCOCCOCCOCCC(=O)O)NC(=O)[C@H](CCCNC(=N)N)NC(=O)[C@H](CCC(N)=O)NC(=O)[C@H]([C@@H](C)CC)NC1=O [compound 139] ({CH2CO}-AV[NMePhe(3-Cl)]V[Trp(7-aza)]NYY(Carboxymethyl)IIQRE(PEG8)[NMeY]C[PEG4]-NH2; thioether N-15),0.524,0.107,,
CC[C@H](C)[C@@H]1NC(=O)[C@H](Cc2ccc(OCC(=O)O)cc2)NC(=O)[C@H](Cc2ccc(O)cc2)NC(=O)[C@H](CC(N)=O)NC(=O)[C@H](Cc2c[nH]c3ncccc23)NC(=O)[C@H](C(C)C)NC(=O)[C@H](Cc2cccc(Cl)c2)N(C)C(=O)[C@H](C(C)C)NC(=O)[C@H](C)NC(=O)CSC[C@@H](C(=O)NCCOCCOCCOCCOCCC(N)=O)NC(=O)[C@H](Cc2ccc(O)cc2)N(C)C(=O)[C@H](Cc2cccc(C(=O)NCCOCCOCCOCCOCCOCCOCCOCCOCCC(=O)O)c2)NC(=O)[C@H](CCCNC(=N)N)NC(=O)[C@H](CCC(N)=O)NC(=O)[C@H]([C@@H](C)CC)NC1=O [compound 140],0.0221,0.00563,,
CC[C@H](C)[C@@H]1NC(=O)[C@H](Cc2ccc(OC)cc2)NC(=O)[C@H](Cc2ccc(O)cc2)NC(=O)[C@H](CC(N)=O)NC(=O)[C@H](Cc2c[nH]c3ncccc23)NC(=O)[C@H](C(C)C)NC(=O)[C@H](Cc2cccc(Cl)c2)N(C)C(=O)[C@H](C(C)C)NC(=O)[C@H](C)NC(=O)CSC[C@@H](C(=O)NCCOCCOCCOCCOCCC(N)=O)NC(=O)[C@H](Cc2ccc(O)cc2)N(C)C(=O)[C@H](CCC(=O)NCCOCCOCCOCCOCCOCCOCCOCCOCCC(=O)O)NC(=O)[C@H](CCCNC(=N)N)NC(=O)[C@H](CCC(=O)NCCOCCOCCOCCOCCOCCOCCOCCOCCC(=O)O)NC(=O)[C@H]([C@@H](C)CC)NC1=O [compound 141] ({CH2CO}-AV[NMePhe(3-Cl)]V[Trp(7-aza)]NYY(Me)IIE(PEG8)RE(PEG8)[NMeY]C[PEG4]-NH2; thioether N-15),0.212,0.142,,
CC[C@H](C)[C@@H]1NC(=O)[C@H](Cc2ccc(OC)cc2)NC(=O)[C@H](Cc2ccc(O)cc2)NC(=O)[C@H](CC(N)=O)NC(=O)[C@H](Cc2c[nH]c3ncccc23)NC(=O)[C@H](C(C)C)NC(=O)[C@H](Cc2cccc(Cl)c2)N(C)C(=O)[C@H](C(C)C)NC(=O)[C@H](C)NC(=O)CSC[C@@H](C(=O)NCCOCCOCCOCCOCCC(N)=O)NC(=O)[C@H](Cc2ccc(O)cc2)N(C)C(=O)[C@H](Cc2cccc(C(=O)NCCOCCOCCOCCOCCOCCOCCOCCOCCC(=O)O)c2)NC(=O)[C@H](CCCNC(=N)N)NC(=O)[C@H](CCC(=O)NCCOCCOCCOCCOCCOCCOCCOCCOCCC(=O)O)NC(=O)[C@H]([C@@H](C)CC)NC1=O [compound 142],0.0178,0.00215,,
CC[C@H](C)[C@@H]1NC(=O)[C@H](Cc2ccc(OCC(=O)O)cc2)NC(=O)[C@H](Cc2ccc(O)cc2)NC(=O)[C@H](CC(N)=O)NC(=O)[C@H](Cc2c[nH]c3ncccc23)NC(=O)[C@H](C(C)C)NC(=O)[C@H](Cc2cccc(Cl)c2)N(C)C(=O)[C@H](C(C)C)NC(=O)[C@H](C)NC(=O)CSC[C@@H](C(=O)NCCOCCOCCOCCOCCC(N)=O)NC(=O)[C@H](Cc2ccc(O)cc2)N(C)C(=O)[C@H](CCC(=O)NCCOCCOCCOCCOCCC(=O)O)NC(=O)[C@H](CCCNC(=N)N)NC(=O)[C@H](CCC(N)=O)NC(=O)[C@H]([C@@H](C)CC)NC1=O [compound 143] ({CH2CO}-AV[NMePhe(3-Cl)]V[Trp(7-aza)]NYY(Carboxymethyl)IIQRE(PEG4)[NMeY]C[PEG4]-NH2; thioether N-15),0.271,0.0591,,
CC[C@H](C)[C@@H]1NC(=O)[C@H](Cc2ccc(OCC(=O)O)cc2)NC(=O)[C@H](Cc2ccc(O)cc2)NC(=O)[C@H](CC(N)=O)NC(=O)[C@H](Cc2c[nH]c3ncccc23)NC(=O)[C@H](C(C)C)NC(=O)[C@H](Cc2cccc(Cl)c2)N(C)C(=O)[C@H](C(C)C)NC(=O)[C@H](C)NC(=O)CSC[C@@H](C(=O)NCCOCCOCCOCCOCCC(N)=O)NC(=O)[C@H](Cc2ccc(O)cc2)N(C)C(=O)[C@H](Cc2cccc(C(=O)NCCOCCOCCOCCOCCC(=O)O)c2)NC(=O)[C@H](CCCNC(=N)N)NC(=O)[C@H](CCC(N)=O)NC(=O)[C@H]([C@@H](C)CC)NC1=O [compound 144],0.0174,0.00356,,
CC[C@H](C)[C@@H]1NC(=O)[C@H](Cc2ccc(OC)cc2)NC(=O)[C@H](Cc2ccc(O)cc2)NC(=O)[C@H](CC(N)=O)NC(=O)[C@H](Cc2c[nH]c3ncccc23)NC(=O)[C@H](C(C)C)NC(=O)[C@H](Cc2cccc(Cl)c2)N(C)C(=O)[C@H](C(C)C)NC(=O)[C@H](C)NC(=O)CSC[C@@H](C(=O)NCCOCCOCCOCCOCCC(N)=O)NC(=O)[C@H](Cc2ccc(O)cc2)N(C)C(=O)[C@H](CCC(=O)NCCOCCOCCOCCOCCC(=O)O)NC(=O)[C@H](CCCNC(=N)N)NC(=O)[C@H](CCC(=O)NCCOCCOCCOCCOCCC(=O)O)NC(=O)[C@H]([C@@H](C)CC)NC1=O [compound 145] ({CH2CO}-AV[NMePhe(3-Cl)]V[Trp(7-aza)]NYY(Me)IIE(PEG4)RE(PEG4)[NMeY]C[PEG4]-NH2; thioether N-15),0.199,0.0485,,
CC[C@H](C)[C@@H]1NC(=O)[C@H](Cc2ccc(OC)cc2)NC(=O)[C@H](Cc2ccc(O)cc2)NC(=O)[C@H](CC(N)=O)NC(=O)[C@H](Cc2c[nH]c3ncccc23)NC(=O)[C@H](C(C)C)NC(=O)[C@H](Cc2cccc(Cl)c2)N(C)C(=O)[C@H](C(C)C)NC(=O)[C@H](C)NC(=O)CSC[C@@H](C(=O)NCCOCCOCCOCCOCCC(N)=O)NC(=O)[C@H](Cc2ccc(O)cc2)N(C)C(=O)[C@H](Cc2cccc(C(=O)NCCOCCOCCOCCOCCC(=O)O)c2)NC(=O)[C@H](CCCNC(=N)N)NC(=O)[C@H](CCC(=O)NCCOCCOCCOCCOCCC(=O)O)NC(=O)[C@H]([C@@H](C)CC)NC1=O [compound 146],0.0114,0.00275,,
CC[C@H](C)[C@@H]1NC(=O)[C@H](Cc2ccc(OCC(=O)O)cc2)NC(=O)[C@H](Cc2ccc(N)nc2)NC(=O)[C@H](CC(N)=O)NC(=O)[C@H](Cc2c[nH]c3ccccc23)NC(=O)[C@H](C(C)C)NC(=O)[C@H](Cc2cccc(Cl)c2)N(C)C(=O)[C@H](C(C)C)NC(=O)[C@H](C)NC(=O)CSC[C@@H](C(=O)NCC(=O)N[C@@H](CCCCN=[N+]=[N-])C(N)=O)NC(=O)[C@H](Cc2ccc(O)cc2)N(C)C(=O)[C@H](Cc2cccc(C(=O)O)c2)NC(=O)[C@H](CCCNC(=N)N)NC(=O)[C@H](CCC(N)=O)NC(=O)[C@H]([C@@H](C)CC)NC1=O [compound 149],0.0281,0.00357,,
CC[C@H](C)[C@@H]1NC(=O)[C@H](Cc2ccc(OC)cc2)NC(=O)[C@H](Cc2ccc(N)nc2)NC(=O)[C@H](CC(N)=O)NC(=O)[C@H](Cc2c[nH]c3ccccc23)N(C)C(=O)[C@H](C(C)C)NC(=O)[C@H](Cc2cccc(Cl)c2)N(C)C(=O)[C@H](C(C)C)NC(=O)[C@H](C)NC(=O)CSC[C@@H](C(=O)NCCOCCOCCOCCOCCC(N)=O)NC(=O)[C@H](Cc2ccc(O)cc2)N(C)C(=O)[C@H](Cc2ccccc2)NC(=O)[C@H](CCCNC(=N)N)NC(=O)[C@H](CCC(N)=O)NC(=O)[C@H]([C@@H](C)CC)NC1=O [compound 170] ({CH2CO}-AV[NMePhe(3-Cl)]V[NMeW]N[3Pal(6-NH2)]Y(Me)IIQRF[NMeY]C[PEG4]-NH2; thioether N-15),,,0.00761,0.00134
CC[C@H](C)[C@@H]1NC(=O)[C@H](Cc2ccc(OC)cc2)NC(=O)[C@H](Cc2ccc(N)nc2)NC(=O)[C@H](CC(N)=O)NC(=O)[C@H](Cc2c[nH]c3ccccc23)N(C)C(=O)[C@H](C(C)C)NC(=O)[C@H](Cc2cccc(Cl)c2)N(C)C(=O)[C@H](C(C)C)NC(=O)[C@H](C)NC(=O)CSC[C@@H](C(=O)NCCOCCOCCOCCOCCC(N)=O)NC(=O)[C@H](Cc2ccc(O)cc2)N(C)C(=O)[C@H](Cc2ccccc2)NC(=O)[C@H](CCCNC(=N)N)NC(=O)[C@H](CCC(=O)NCCCN)NC(=O)[C@H]([C@@H](C)CC)NC1=O [compound 172] ({CH2CO}-AV[NMePhe(3-Cl)]V[NMeW]N[3Pal(6-NH2)]Y(Me)IIE(NH(CH2)3NH2)RF[NMeY]C[PEG4]-NH2; thioether N-15),,,0.00259,0.000215
